Test results from US9040458B2, “Safening composition of 6-(trisubstituded phenyl)-4-amino-2-pyridinecarboxylate herbicides and cloquintocet-mexyl for cereal crops” (Dow AgroSciences LLC, priority 2008, dated 2015).
Where a name gives a salt, the structure may show the parent alone.

Key:
[1] = test system: TRZAS = Triticum aestivum (spring wheat); experiment: Postemergence herbicidal safening, greenhouse, visual injury; format: in vivo; conditions: 20-22 d, listed as (1) TEA salt
Protocol: (§1) Seeds of the desired test plant species were planted in Sun Gro MetroMix® 306 planting mixture, which typically has a pH of 6.0 to 6.8 and an organic matter content of about 30 percent, in plastic pots with a surface area of 103.2 square centimeters (cm^2). When required to ensure good germination and healthy plants, a fungicide treatment and/or other chemical or physical treatment was applied. The plants were grown for 7-36 days (d) in a greenhouse with an approximate […] photoperiod which was maintained at about 18° C. during the day and 17° C. during the night. Nutrients and water were added on a regular basis and supplemental lighting was provided with overhead metal halide 1000-Watt lamps as necessary. The plants were employed for testing when they reached the second or third true leaf stage.
(§2) Weighed amounts of esters (methyl) or salts (TEA [triethylammonium], potassium [K]) of 4-amino-3-chloro-6-(4-chloro-2-fluoro-3-methoxyphenyl)pyridine-2-carboxylic acid (Compound 1) were dissolved in a volume of 97:3 volume/volume (v/v) acetone/dimethylsulfoxide (DMSO) to obtain stock solutions. […] The concentrated stock solutions were diluted with an aqueous mixture of 1.5% v/v of Agri-dex crop oil concentrate to provide the appropriate application rates. Compound requirements are based upon a 12 mL application volume at a rate of 187 liters per hectare (L/ha). Stocks solutions of the safeners were prepared following the same procedure. Spray solutions of the safeners and experimental compound mixtures were prepared by adding the appropriate volume of both stock solutions to the appropriate amount of dilution solution to form a 12 mL spray solution with active ingredients in two-way combinations. Formulated compounds were applied to the plant material with an overhead Mandel track sprayer equipped with 8002E nozzles calibrated to deliver 187 L/ha over an application area of 0.503 square meters (m^2) at a spray height of 18 inches (43 centimeters (cm)) above average plant canopy. Control plants were sprayed in the same manner with the solvent blank.
(§3) The treated plants and control plants were placed in a greenhouse as described above and watered by sub-irrigation to prevent wash-off of the test compounds. After 20-22 d, the condition of the test plants as compared with that of the control plants was determined visually and scored on a scale of 0 to 100 percent where 0 corresponds to no injury and 100 corresponds to complete kill.
(§4) Colby's equation was used to determine the herbicidal effects expected from the mixtures (Colby, S. R., Calculation of the synergistic and antagonistic response of herbicide combinations. Weeds 1967, 15, 20-22.).
(§5) The following equation was used to calculate the expected activity of mixtures containing two active ingredients, A and B: Expected=A+B−(A×B/100)
(§6) A=observed efficacy of active ingredient A at the same concentration as used in the mixture.
(§7) B=observed efficacy of active ingredient B at the same concentration as used in the mixture.

[2] = test system: TRZDU = Triticum durum (durum wheat); experiment: as above; format: in vivo; conditions: applied alone at 140 g/ha; 20-22 d
Protocol: as §1, §2, §3, §4, §5, §6, §7

[3] = test system: TRZAW = Triticum aestivum (winter wheat); experiment: as above; format: in vivo; conditions: applied alone at 140 g/ha; 20-22 d; listed as (1) TEA salt
Protocol: as §1, §2, §3, §4, §5, §6, §7

[4] = test system: HORVS = Hordeum vulgare (spring barley); experiment: as above; format: in vivo; conditions: 20-22 d, listed as (1) TEA salt
Protocol: as §1, §2, §3, §4, §5, §6, §7

[5] = test system: PAPRH (corn poppy); experiment: Postemergence herbicidal activity, greenhouse, visual injury; format: in vivo, Papaver rhoeas; conditions: applied alone at 140 g/ha; 20-22 d
Protocol: as §1, §2, §3, §4, §5, §6, §7

[6] = test system: POLCO (wild buckwheat); experiment: as above; format: in vivo, Polygonum convolvulus; conditions: applied alone at 140 g/ha; 20-22 d
Protocol: as §1, §2, §3, §4, §5, §6, §7

[7] = test system: LAMPU (purple deadnettle); experiment: as above; format: in vivo, Lamium purpureum; conditions: applied alone at 140 g/ha; 20-22 d
Protocol: as §1, §2, §3, §4, §5, §6, §7

[8] = test system: HORVW (winter barley); experiment: Postemergence herbicidal safening, greenhouse, visual injury; format: in vivo, Hordeum vulgare; conditions: applied alone at 140 g/ha; 20-22 d; listed as (1) TEA salt
Protocol: as §1, with “stage. […]” for “stage.”
as §3, with “kill. […]” for “kill.”

[9] = test system: MATCH = Matricaria chamomila (scented mayweed); experiment: Postemergence herbicidal activity, greenhouse, visual injury; format: in vivo; conditions: applied alone at 140 g/ha; 20-22 d; listed as (1) TEA salt
Protocol: as §1, §2, §3, §4, §5, §6, §7

[10] = test system: VIOTR = Viola tricolor (wild pansy); experiment: as above; format: in vivo; conditions: applied alone at 140 g/ha; 20-22 d; listed as (1) TEA salt
Protocol: as §1, §2, §3, §4, §5, §6, §7

[11] = test system: STEME = Stellaria media (common chickweed); experiment: as above; format: in vivo; conditions: applied alone at 140 g/ha; 20-22 d
Protocol: as §1, §2, §3, §4, §5, §6, §7

[12] = test system: KCHSC = Kochia scoparia (kochia); experiment: as above; format: in vivo; conditions: applied alone at 140 g/ha; 20-22 d; listed as (1) TEA salt
Protocol: as §1, §2, §3, §4, §5, §6, §7

[13] = test system: VERPE = Veronica persica (bird's-eye speedwell); experiment: as above; format: in vivo; conditions: applied alone at 140 g/ha; 20-22 d; listed as (1) TEA salt
Protocol: as §1, §2, §3, §4, §5, §6, §7

[14] = test system: SASKR = Salsola iberica (Russian thistle); experiment: as above; format: in vivo; conditions: applied alone at 140 g/ha; 20-22 d; listed as (1) TEA salt
Protocol: as §1, §2, §3, §4, §5, §6, §7

With `COc1c(Cl)ccc(-c2cc(N)c(Cl)c(C(=O)O)n2)c1F` [Compound (1) TEA salt, 4-amino-3-chloro-6-(4-chloro-2-fluoro-3-methoxyphenyl)pyridine-2-carboxylic acid] the “TRZAS Ob (observed injury)” value ([1]; applied alone at 8.75 g/ha) was 5%, the “TRZAS Ob (observed injury)” value ([1]; applied alone at 35 g/ha) was 15% and the “TRZAS Ob (observed injury)” value ([1]; applied alone at 70 g/ha) was 10%. For the same molecule, the “TRZAS Ob (observed injury)” value ([1]; applied alone at 140 g/ha) was 27%, the “TRZDU Ob (observed injury)” value [2] was 10% and the “TRZAW Ob (observed injury)” value [3] was 24%. The “HORVS Ob (observed injury)” value ([4]; applied alone at 8.75 g/ha) was 25%, the “HORVS Ob (observed injury)” value ([4]; applied alone at 35 g/ha) was 23% and the “HORVS Ob (observed injury)” value ([4]; applied alone at 140 g/ha) was 23%. The “PAPRH Ob (observed injury)” value [5] was 100%, the “POLCO Ob (observed injury)” value [6] was 100% and the “LAMPU Ob (observed injury)” value [7] was 98%. For the same molecule, the “HORVW Ob (observed injury)” value [8] was 15%, the “MATCH Ob (observed injury)” value [9] was 84% and the “VIOTR Ob (observed injury)” value [10] was 66%. For the same molecule, the “STEME Ob (observed injury)” value [11] was 88%, the “KCHSC Ob (observed injury)” value [12] was 95% and the “VERPE Ob (observed injury)” value [13] was 89%. The “SASKR Ob (observed injury)” value [14] was 86%.
